The assay addresses T1, recombinant human cGAS (aa147-522) (Homo sapiens, UniProt Q8N884).
T1 construct: recombinant human cGAS (aa147-522); His6-SUMO (cleaved yes); made in house; host or cells: E. coli BL21/pLys
Put plainly: In vitro inhibition assay of cGAS activity (ATP consumption, KinaseGlo Max). The format is biochemical. Put shortly:
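IC50 came from plotting % ATP consumption against log compound concentration, with leftover ATP detected by KinaseGlo Max chemiluminescence. Reactions ran 20 min at 37 °C with 1.5 μg/mL human cGAS (aa147-522), 6.6 μM ATP, 0.1 mM GTP and 0.01 mg/mL DNA at pH 7.5.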

Setting [1] is: Table 2, read-out: cGAS Inhibition Results IC50.
Where [2] appears, read: cGAS Inhibition Results IC50, Table 2.

Like-named read-outs stand apart in the source and are kept apart here. Some results are limits rather than exact numbers.

T1 sequence (Q8N884 147-522): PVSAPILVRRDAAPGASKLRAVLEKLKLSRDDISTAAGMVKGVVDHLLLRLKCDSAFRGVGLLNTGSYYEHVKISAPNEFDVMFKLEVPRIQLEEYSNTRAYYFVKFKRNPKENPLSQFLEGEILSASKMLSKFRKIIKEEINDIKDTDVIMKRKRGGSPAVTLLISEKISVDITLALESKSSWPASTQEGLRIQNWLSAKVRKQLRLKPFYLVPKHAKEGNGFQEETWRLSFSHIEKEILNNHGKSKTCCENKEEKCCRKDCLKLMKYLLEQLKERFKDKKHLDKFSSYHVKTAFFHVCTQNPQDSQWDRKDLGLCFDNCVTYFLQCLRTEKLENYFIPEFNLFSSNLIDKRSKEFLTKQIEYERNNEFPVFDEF

Take `CN(CCC(N)=O)c1cc(-c2cn[nH]c2)c2ccc(Cl)c(Cl)c2n1` [I-191]: the 50% inhibitory concentration (IC50) under setting [1] is under 2 µM.

As to `CNC(=O)CCN(C)c1cc(-c2cn[nH]c2)c2ccc(Cl)c(Cl)c2n1` [I-192], the half-inhibitory concentration (IC50) under setting [1] is under 2 µM.

Turning to `CN(CCC(=O)NCc1ccccc1)c1cc(-c2cn[nH]c2)c2ccc(Cl)c(Cl)c2n1` [I-193, N-benzyl-3-((7,8-dichloro-4-(1H-pyrazol-4-yl)quinolin-2-yl)(methyl)amino)propenamide], the half-maximal inhibitory concentration (IC50) under setting [1] is 2 to 30 µM.

For the molecule `CN(CCC(=O)NCCO)c1cc(-c2cn[nH]c2)c2ccc(Cl)c(Cl)c2n1` [I-194], the IC50 under setting [1] is under 2 µM.

On to `CN(CCC(=O)NCC(N)=O)c1cc(-c2cn[nH]c2)c2ccc(Cl)c(Cl)c2n1` [I-195], for which, under setting [1], the IC50 is under 2 µM.

Turning to `CN(CCC(=O)NCC(=O)O)c1cc(-c2cn[nH]c2)c2ccc(Cl)c(Cl)c2n1` [I-196], the IC50 under setting [1] is under 2 µM.

On to `CN(C)C(=O)CCN(C)c1cc(-c2cn[nH]c2)c2ccc(Cl)c(Cl)c2n1` [I-197], for which the half-inhibitory concentration (IC50) under setting [1] is under 2 µM.

`CN(CCC(=O)N1CCCC(O)C1)c1cc(-c2cn[nH]c2)c2ccc(Cl)c(Cl)c2n1` (stereo not drawn) [I-198]: the IC50 under setting [1] is under 2 µM.

Take `CN(CCC(=O)N1CCCC(CO)C1)c1cc(-c2cn[nH]c2)c2ccc(Cl)c(Cl)c2n1` (stereo not drawn) [I-199]: under setting [1], the IC50 was 2 to 30 µM.

On to `CNS(=O)(=O)CCNc1cc(-n2ccnc2)c2ccc(Cl)c(Cl)c2n1` [I-201], for which, under setting [1], the concentration for half-maximal inhibition (IC50) is under 2 µM.

On to `CN(C)S(=O)(=O)CCNc1cc(-n2ccnc2)c2ccc(Cl)c(Cl)c2n1` [I-202], for which the half-inhibitory concentration (IC50) under setting [1] is under 2 µM.

Regarding `NS(=O)(=O)CCNc1cc(-c2cn[nH]c2)c2ccc(Cl)c(Cl)c2n1` [I-203], the IC50 under setting [1] was under 2 µM.

On to `CN(CCS(N)(=O)=O)c1cc(-n2ccnc2)c2ccc(Cl)c(Cl)c2n1` [I-204], for which the IC50 under setting [1] was under 2 µM.

Regarding `CNS(=O)(=O)CCN(C)c1cc(-n2ccnc2)c2ccc(Cl)c(Cl)c2n1` [I-205], the IC50 under setting [1] is under 2 µM.

In the case of `C[C@@H](CS(N)(=O)=O)Nc1cc(-n2ccnc2)c2ccc(Cl)c(Cl)c2n1` [I-206], under setting [1], the half-maximal inhibitory concentration (IC50) lay in the range of 2 to 30 µM.

Turning to `C[C@H](CS(N)(=O)=O)Nc1cc(-n2ccnc2)c2ccc(Cl)c(Cl)c2n1` [I-207], the IC50 under setting [1] is under 2 µM.

Consider `NS(=O)(=O)CC(Cc1ccccc1)Nc1cc(-n2ccnc2)c2ccc(Cl)c(Cl)c2n1` (stereo not drawn) [I-208, 2-((7,8-dichloro-4-(1H-imidazol-1-yl)quinolin-2-yl)amino)-3-phenylpropane-1-sulfonamide], for which the IC50 under setting [1] was 2 to 30 µM.

`CC(C)[C@H](CS(N)(=O)=O)Nc1cc(-n2ccnc2)c2ccc(Cl)c(Cl)c2n1` [I-209]: the IC50 under setting [1] was over 30 µM.

Take `CC(CNc1cc(-n2ccnc2)c2ccc(Cl)c(Cl)c2n1)S(N)(=O)=O` (stereo not drawn) [I-210]: the half-maximal inhibitory concentration (IC50) under setting [1] fell in the range of 2 to 30 µM.

For `CC(CN1CCOCC1)Nc1cc(-c2cn[nH]c2)c2ccc(Cl)c(Cl)c2n1` (stereo not drawn) [I-211], the half-inhibitory concentration (IC50) under setting [1] lay in the range of 2 to 30 µM.

On to `CCN(CCN1CCOCC1)c1cc(-c2cn[nH]c2)c2ccc(Cl)c(Cl)c2n1` [I-212], for which, under setting [1], the half-maximal inhibitory concentration (IC50) was in the range of 2 to 30 µM.

For the molecule `Clc1ccc2c(-c3cn[nH]c3)cc(NCCN3CCOCC3)nc2c1Cl` [I-213], under setting [1], the half-inhibitory concentration (IC50) lay within 2 to 30 µM.

As for `CN(CCN1CCOCC1)c1cc(-c2cn[nH]c2)c2ccc(Cl)c(Cl)c2n1` [I-214], the IC50 under setting [1] is 2 to 30 µM.

In the case of `Clc1ccc2c(-n3ccnc3)cc(NCCN3CCOCC3)nc2c1Cl` [I-215], under setting [1], the IC50 lay within 2 to 30 µM.

`Clc1ccc2c(-c3cn[nH]c3)cc(N(CCN3CCOCC3)Cc3ccccc3)nc2c1Cl` [I-216]: the concentration for half-maximal inhibition (IC50) under setting [1] is 2 to 30 µM.

In the case of `Clc1ccc2c(-c3cn[nH]c3)cc(NCC3COCCN3)nc2c1Cl` (stereo not drawn) [I-217], the concentration for half-maximal inhibition (IC50) under setting [1] is over 30 µM.

Take `OCCN(CCN1CCOCC1)c1cc(-c2cn[nH]c2)c2ccc(Cl)c(Cl)c2n1` [I-218]: the IC50 under setting [1] is under 2 µM.

For the molecule `NS(=O)(=O)N1CCOC(CNc2cc(-n3ccnc3)c3ccc(Cl)c(Cl)c3n2)C1` (stereo not drawn) [I-219, 2-(((7,8-dichloro-4-(1H-imidazol-1-yl)quinolin-2-yl)amino)methyl)morpholine-4-sulfonamide], the half-inhibitory concentration (IC50) under setting [1] is under 2 µM.

Consider `Clc1ccc2c(-c3cn[nH]c3)cc(NCC3CNCCO3)nc2c1Cl` (stereo not drawn) [I-220], for which the IC50 under setting [1] was 2 to 30 µM.

For `CC(=O)N1CCOC(CNc2cc(-c3cn[nH]c3)c3ccc(Cl)c(Cl)c3n2)C1` (stereo not drawn) [I-221, 1-(2-(((7,8-dichloro-4-(1H-pyrazol-4-yl)quinolin-2-yl)amino)methyl)morpholino)ethan-1-one], under setting [1], the concentration for half-maximal inhibition (IC50) was under 2 µM.

In the case of `O=C(CO)N1CCOC(CNc2cc(-c3cn[nH]c3)c3ccc(Cl)c(Cl)c3n2)C1` (stereo not drawn) [I-222], under setting [1], the IC50 is under 2 µM.

For `CN(CCNS(N)(=O)=O)c1cc(-n2ccnc2)c2ccc(Cl)c(Cl)c2n1` [I-223, N-(2-((7,8-dichloro-4-(1H-imidazol-1-yl)quinolin-2-yl)(methyl)amino)ethyl)aminosulfonamide], under setting [1], the IC50 was under 2 µM.

`CN(CCN(C)S(N)(=O)=O)c1cc(-n2ccnc2)c2ccc(Cl)c(Cl)c2n1` [I-224]: the half-maximal inhibitory concentration (IC50) under setting [1] is under 2 µM.

In the case of `CN(CCNS(C)(=O)=O)c1cc(-n2ccnc2)c2ccc(Cl)c(Cl)c2n1` [I-225], under setting [1], the IC50 was under 2 µM.

Regarding `CN(CCNS(=O)(=O)C1CC1)c1cc(-n2ccnc2)c2ccc(Cl)cc2n1` [I-226, N-(2-((7-chloro-4-(1H-imidazol-1-yl)quinolin-2-yl)(methyl)amino)ethyl)cyclopropanesulfonamide], under setting [1], the concentration for half-maximal inhibition (IC50) was in the range of 2 to 30 µM.

Regarding `CN(CCNS(=O)(=O)c1ccccc1)c1cc(-n2ccnc2)c2ccc(Cl)cc2n1` [I-227], the 50% inhibitory concentration (IC50) under setting [1] is over 30 µM.

As for `CN(CCNS(=O)(=O)c1ccccc1C(F)(F)F)c1cc(-n2ccnc2)c2ccc(Cl)cc2n1` [I-228], the IC50 under setting [1] is over 30 µM.

For the molecule `COCn1nccc1S(=O)(=O)NCCN(C)c1cc(-n2ccnc2)c2ccc(Cl)cc2n1` [I-229], the IC50 under setting [1] is over 30 µM.

Regarding `CN(CCNS(=O)(=O)c1ncc[nH]1)c1cc(-n2ccnc2)c2ccc(Cl)cc2n1` [I-230], the IC50 under setting [1] was 2 to 30 µM.

Turning to `CN(CCNS(=O)(=O)c1cccnc1)c1cc(-n2ccnc2)c2ccc(Cl)cc2n1` [I-231], the IC50 under setting [1] was in the range of 2 to 30 µM.

Regarding `CN(CCNS(=O)(=O)c1cncn1C)c1cc(-n2ccnc2)c2ccc(Cl)cc2n1` [I-232], under setting [1], the IC50 lay in the range of 2 to 30 µM.

Regarding `CN(CCNS(C)(=O)=O)c1cc(-n2ccnc2)c2ccc(Cl)cc2n1` [I-234], under setting [1], the IC50 was under 2 µM.

On to `CN(CCNS(C)(=O)=O)c1cc(-c2cn[nH]c2)c2ccc(Cl)c(Cl)c2n1` [I-235], for which the IC50 under setting [1] was under 2 µM.

Regarding `CC(=O)NCCN(C)c1cc(-n2ccnc2)c2ccc(Cl)cc2n1` [I-236], the concentration for half-maximal inhibition (IC50) under setting [1] lay in the range of 2 to 30 µM.

Consider `CN(CCNC(=O)c1ccccc1)c1cc(-n2ccnc2)c2ccc(Cl)cc2n1` [I-237], for which the concentration for half-maximal inhibition (IC50) under setting [1] lay within 2 to 30 µM.

Regarding `CN(CCO)c1cc(-n2ccnc2)c2ccc(Cl)c(Cl)c2n1` [I-238], the IC50 under setting [1] is under 2 µM.

Regarding `OCCNc1cc(-n2ccnc2)c2ccc(Cl)c(Cl)c2n1` [I-239], under setting [1], the IC50 is under 2 µM.

With `CN(CCO)c1cc(-c2cn[nH]c2)c2ccc(Cl)c(Cl)c2n1` [I-240], the IC50 under setting [1] is under 2 µM.

As for `C[C@@H](CO)N(C)c1cc(-n2ccnc2)c2ccc(Cl)c(Cl)c2n1` [I-241], the IC50 under setting [1] is under 2 µM.

In the case of `C[C@H](CO)N(C)c1cc(-n2ccnc2)c2ccc(Cl)c(Cl)c2n1` [I-242], the IC50 under setting [1] was under 2 µM.

For the molecule `CC(O)CN(C)c1cc(-n2ccnc2)c2ccc(Cl)c(Cl)c2n1` (stereo not drawn) [I-243], the 50% inhibitory concentration (IC50) under setting [1] is under 2 µM.

Regarding `COCCN(C)c1cc(-n2ccnc2)c2ccc(Cl)c(Cl)c2n1` [I-244], under setting [1], the IC50 was under 2 µM.

Consider `OC1(CNc2cc(-n3ccnc3)c3ccc(Cl)c(Cl)c3n2)CC1` [I-245], for which the IC50 under setting [1] is under 2 µM.

Take `OC[C@@H](Nc1cc(-n2ccnc2)c2ccc(Cl)c(Cl)c2n1)c1ccccc1` [I-246]: the IC50 under setting [1] was 2 to 30 µM.

On to `OC[C@H](Nc1cc(-n2ccnc2)c2ccc(Cl)c(Cl)c2n1)c1ccccc1` [I-247], for which, under setting [1], the IC50 lay in the range of 2 to 30 µM.

As for `CN(CCCO)c1cc(-c2cn[nH]c2)c2ccc(Cl)c(Cl)c2n1` [I-248], the IC50 under setting [1] is under 2 µM.

`OCC(CO)Nc1cc(-n2ccnc2)c2ccc(Cl)c(Cl)c2n1` [I-249]: the 50% inhibitory concentration (IC50) under setting [1] is under 2 µM.

In the case of `O=P(O)(O)CCNc1cc(-n2ccnc2)c2ccc(Cl)c(Cl)c2n1` [I-250], the IC50 under setting [1] is under 2 µM.

On to `O=P(O)(O)Cc1cc(-n2ccnc2)c2ccc(Cl)c(Cl)c2n1` [I-251, ((7,8-dichloro-4-(1H-imidazol-1-yl)quinolin-2-yl)methyl)phosphonic acid], for which the half-inhibitory concentration (IC50) under setting [1] is over 30 µM.

Take `CCOP(=O)(O)Cc1cc(-n2ccnc2)c2ccc(Cl)c(Cl)c2n1` [I-252, Ethyl hydrogen (7,8-dichloro-4-(1H-imidazol-1-yl)quinolin-2-yl)methylphosphonate]: the IC50 under setting [2] is 2 to 30 µM.

Turning to `CCOP(=O)(O)CNc1cc(-c2cn[nH]c2)c2ccc(Cl)c(Cl)c2n1` [I-253, Ethyl hydrogen (7,8-dichloro-4-(1H-pyrazol-4-yl)quinolin-2-ylamino)methylphosphonate], the IC50 under setting [2] is under 2 µM.

Consider `O=P(O)(O)CNc1cc(-c2cn[nH]c2)c2ccc(Cl)c(Cl)c2n1` [I-254, (7,8-dichloro-4-(1H-pyrazol-4-yl)quinolin-2-ylamino)methylphosphonic acid], for which the IC50 under setting [1] was under 2 µM.

With `CN(CCO[PH](=O)O)c1cc(-n2ccnc2)c2ccc(Cl)c(Cl)c2n1` [I-255], under setting [1], the IC50 is under 2 µM.

For the molecule `CN(CCCO[PH](=O)O)c1cc(-c2cn[nH]c2)c2ccc(Cl)c(Cl)c2n1` [I-256], the IC50 under setting [1] was under 2 µM.

Regarding `CN(CCCO[PH](=O)OCCC#N)c1cc(-c2cn[nH]c2)c2ccc(Cl)c(Cl)c2n1` (stereo not drawn) [I-257], under setting [1], the IC50 was under 2 µM.

`O=[PH](O)OCCCCNc1cc(-c2cn[nH]c2)c2ccc(Cl)c(Cl)c2n1` [I-258]: under setting [1], the half-inhibitory concentration (IC50) was under 2 µM.

Take `NS(=O)(=O)CCNc1cc(-c2cn[nH]c2)c2cc(Cl)c(Cl)cc2n1` [I-260]: the IC50 under setting [1] is under 2 µM.

Take `NS(=O)(=O)CCNc1cc(-c2cn[nH]c2)c2c(Cl)c(Cl)ccc2n1` [I-261]: the IC50 under setting [1] is over 30 µM.

On to `NS(=O)(=O)CCNc1cc(-c2cn[nH]c2)c2ccc(Cl)c(F)c2n1` [I-262], for which, under setting [1], the concentration for half-maximal inhibition (IC50) is under 2 µM.

These data come from patent US11873291B2, “Quinoline cGAS antagonist compounds” (ImmuneSensor Therapeutics, Inc., priority 2020, dated 2024).
